Laboratory results as given in PubChem BioAssay AID248 (DTP/NCI, 2004).
Values joined by “and” are separate entries in the source; they are usually repeats but may differ in a detail not shown here. Identical values can stand only once. Toxic doses and inconclusive results are not listed.

Test system: L1210 leukemia ip in BDF1 mice, survival T/C
Assay: NCI In Vivo Anticancer Drug Screen. Data for tumor model L1210 Leukemia (intraperitoneal) in B6D2F1 (BDF1) mice
Conditions: endpoint: mean survival time, higher = longer survival
How it was run: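 Transplantable tumor model; survival measured in treated vs vehicle control mice. Value = treated/control.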

[1] = dose: 100.0 mg/kg/injection, schedule: Q04DX003 (ip), vehicle: Klucel (hydroxypropylcellulose) (HPC)
[2] = dose: 200.0 mg/kg/injection, schedule: Q04DX003 (ip), vehicle: Klucel (hydroxypropylcellulose) (HPC)
[3] = dose: 400.0 mg/kg/injection, schedule: Q04DX003 (ip), vehicle: Klucel (hydroxypropylcellulose) (HPC)
[4] = dose: 100.0 mg/kg/injection, schedule: Q04DX002 (ip), vehicle: saline
[5] = dose: 100.0 mg/kg/injection, schedule: Q01DX001 (ip), vehicle: saline
[6] = dose: 200.0 mg/kg/injection, schedule: Q01DX001 (ip), vehicle: saline
[7] = dose: 400.0 mg/kg/injection, schedule: Q01DX001 (ip), vehicle: saline
[8] = dose: 100.0 mg/kg/injection, schedule: Q01DX009 (ip), vehicle: saline with Tween-80
[9] = dose: 200.0 mg/kg/injection, schedule: Q01DX009 (ip), vehicle: saline with Tween-80
[10] = dose: 100.0 mg/kg/injection, schedule: Q04DX003 (ip), vehicle: saline with Tween-80
[11] = dose: 200.0 mg/kg/injection, schedule: Q04DX003 (ip), vehicle: saline with Tween-80
[12] = dose: 400.0 mg/kg/injection, schedule: Q04DX003 (ip), vehicle: saline with Tween-80
[13] = dose: 100.0 mg/kg/injection, schedule: Q01DX009 (ip), vehicle: Klucel (hydroxypropylcellulose) (HPC)
[14] = dose: 200.0 mg/kg/injection, schedule: Q01DX009 (ip), vehicle: Klucel (hydroxypropylcellulose) (HPC)
[15] = dose: 400.0 mg/kg/injection, schedule: Q01DX009 (ip), vehicle: Klucel (hydroxypropylcellulose) (HPC)
[16] = dose: 12.5 mg/kg/injection, schedule: Q01DX009 (ip), vehicle: saline
[17] = dose: 25.0 mg/kg/injection, schedule: Q01DX009 (ip), vehicle: saline
[18] = dose: 25.0 mg/kg/injection, schedule: Q04DX003 (ip), vehicle: saline
[19] = dose: 50.0 mg/kg/injection, schedule: Q01DX009 (ip), vehicle: saline
[20] = dose: 50.0 mg/kg/injection, schedule: Q04DX003 (ip), vehicle: saline
[21] = dose: 400.0 mg/kg/injection, schedule: Q01DX009 (ip), vehicle: saline with Tween-80
[22] = dose: 100.0 mg/kg/injection, schedule: Q01DX001 (ip), vehicle: Klucel (hydroxypropylcellulose) (HPC)
[23] = dose: 200.0 mg/kg/injection, schedule: Q01DX001 (ip), vehicle: Klucel (hydroxypropylcellulose) (HPC)
[24] = dose: 400.0 mg/kg/injection, schedule: Q01DX001 (ip), vehicle: Klucel (hydroxypropylcellulose) (HPC)
[25] = dose: 100.0 mg/kg/injection, schedule: Q01DX001 (ip), vehicle: carboxymethylcellulose (CMC)
[26] = dose: 200.0 mg/kg/injection, schedule: Q01DX001 (ip), vehicle: carboxymethylcellulose (CMC)
[27] = dose: 400.0 mg/kg/injection, schedule: Q01DX001 (ip), vehicle: carboxymethylcellulose (CMC)

## COC(=O)C1C2CCc3cc(OC)ccc3C2CCC1(C)C(=O)O (stereo not given)
[1]
  T/C: 95 % of control
[2]
  T/C: 95 % of control
[3]
  T/C: 91 % of control

## CNCCc1ccc(OC)c(OC)c1
dose: 25.0 mg/kg/injection, schedule: Q04DX002 (ip), vehicle: saline
  T/C: 104 % of control
dose: 50.0 mg/kg/injection, schedule: Q04DX002 (ip), vehicle: saline
  T/C: 107 % of control
[4]
  T/C: 96 % of control

## CC(=O)NC(C(=O)O)C(C)C (stereo not given)
[5]
  T/C: 97 % of control
[6]
  T/C: 87 % of control
[7]
  T/C: 99 % of control

## Cc1ccc(C)c(NC(=O)NCc2ccco2)c1
[8]
  T/C: 97 % of control
[9]
  T/C: 89 % of control

## COc1ccc(Sc2cccc3c2C(=O)c2c(Sc4ccc(OC)cc4)cccc2C3=O)cc1
[10]
  T/C: 91 % of control
[11]
  T/C: 96 % of control
[12]
  T/C: 87 % of control

## N#CC(c1ccccc1)N1CCOCC1 (stereo not given)
[1]
  T/C: 91 % of control
[2]
  T/C: 96 % of control
[3]
  T/C: 95 % of control

## Nc1ncnc2c1ncn2C1OCC(OCc2ccccc2)C(OCc2ccccc2)C1OCc1ccccc1 (stereo not given)
[5]
  T/C: 98 % of control
dose: 178.0 mg/kg/injection, schedule: Q01DX001 (ip), vehicle: saline
  T/C: 97 % of control and 104 % of control
[6]
  T/C: 98 % of control and 96 % of control
dose: 267.0 mg/kg/injection, schedule: Q01DX001 (ip), vehicle: saline
  T/C: 97 % of control and 103 % of control
[7]
  T/C: 101 % of control and 220 % of control and 93 % of control
dose: 600.0 mg/kg/injection, schedule: Q01DX001 (ip), vehicle: saline
  T/C: 97 % of control and 101 % of control

## CCCC(O)(CCC)CC(=O)OCC
dose: 200.0 mg/kg/injection, schedule: Q04DX003 (ip), vehicle: saline sonified
  T/C: 106 % of control
dose: 400.0 mg/kg/injection, schedule: Q04DX003 (ip), vehicle: saline sonified
  T/C: 90 % of control

## CC1(C)C(C(=O)O)CC1C(=O)C(=O)O (stereo not given)
dose: 75.0 mg/kg/injection, schedule: Q01DX001 (ip), vehicle: carboxymethylcellulose (CMC)
  T/C: 96 % of control
dose: 150.0 mg/kg/injection, schedule: Q01DX001 (ip), vehicle: carboxymethylcellulose (CMC)
  T/C: 96 % of control
dose: 300.0 mg/kg/injection, schedule: Q01DX001 (ip), vehicle: carboxymethylcellulose (CMC)
  T/C: 94 % of control

## CC(C)(C)OC(=O)COc1cccc([N+](=O)[O-])c1
[13]
  T/C: 114 % of control
[14]
  T/C: 102 % of control
[15]
  T/C: 100 % of control

## CC(C)(C)NC(=O)C1C2C=CC(CC2)C1C(=O)NC(C)(C)C (stereo not given)
[10]
  T/C: 100 % of control
[11]
  T/C: 96 % of control
[12]
  T/C: 92 % of control

## O=C(O)c1ccc2c(c1)Sc1ccccc1N2
[1]
  T/C: 95 % of control
[2]
  T/C: 95 % of control

## C=CCOB(OCC=C)OCC=C
[16]
  T/C: 120 % of control
[17]
  T/C: 101 % of control
[18]
  T/C: 97 % of control
[19]
  T/C: 106 % of control
[20]
  T/C: 103 % of control

## N#Cc1c(Oc2ccccc2)c(F)c(Oc2ccccc2)c(F)c1Oc1ccccc1
[8]
  T/C: 100 % of control
[9]
  T/C: 91 % of control
[21]
  T/C: 92 % of control

## O=C(CCc1ccc(C(=O)Nc2ccc(C3=NCCN3)cc2)cc1)Nc1ccc(C2=NCCN2)cc1
dose: 1.87 mg/kg/injection, schedule: Q01DX Z (ip), vehicle: carboxymethylcellulose (CMC)
  T/C: 101 % of control
dose: 3.75 mg/kg/injection, schedule: Q01DX Z (ip), vehicle: carboxymethylcellulose (CMC)
  T/C: 103 % of control
dose: 7.5 mg/kg/injection, schedule: Q01DX Z (ip), vehicle: carboxymethylcellulose (CMC)
  T/C: 99 % of control
dose: 15.0 mg/kg/injection, schedule: Q01DX Z (ip), vehicle: carboxymethylcellulose (CMC)
  T/C: 235 % of control
dose: 30.0 mg/kg/injection, schedule: Q01DX Z (ip), vehicle: carboxymethylcellulose (CMC)
  T/C: 223 % of control and 295 % of control
dose: 60.0 mg/kg/injection, schedule: Q01DX Z (ip), vehicle: carboxymethylcellulose (CMC)
  T/C: 239 % of control and 262 % of control

## Cc1ccc(CN(C)C)c(C(O)c2ccccc2)c1 (stereo not given)
dose: 50.0 mg/kg/injection, schedule: Q01DX001 (ip), vehicle: saline
  T/C: 96 % of control
[5]
  T/C: 96 % of control

## CC(C)=CC#N
[10]
  T/C: 90 % of control
[11]
  T/C: 103 % of control
[12]
  T/C: 101 % of control

## CCOC(=O)C(=Cc1c[nH]c2ccccc12)C(=O)OCC
[8]
  T/C: 108 % of control
[10]
  T/C: 96 % of control
[9]
  T/C: 90 % of control
[11]
  T/C: 96 % of control
[21]
  T/C: 92 % of control
[12]
  T/C: 96 % of control

## Cn1cnc(N)c1C(=N)[Se]
dose: 6.25 mg/kg/injection, schedule: Q01DX009 (ip), vehicle: water
  T/C: 86 % of control
dose: 12.5 mg/kg/injection, schedule: Q04DX003 (ip), vehicle: water
  T/C: 108 % of control
dose: 25.0 mg/kg/injection, schedule: Q04DX003 (ip), vehicle: water
  T/C: 95 % of control

## O=S(=O)(OCC(O)C1OCOC2COCOC21)c1ccccc1 (stereo not given)
[22]
  T/C: 112 % of control
[23]
  T/C: 93 % of control
[24]
  T/C: 97 % of control

## CCC(C=NCCBr)(CCC(=O)OC)CCC(=O)OC
[4]
  T/C: 102 % of control
dose: 200.0 mg/kg/injection, schedule: Q04DX002 (ip), vehicle: saline
  T/C: 102 % of control
dose: 400.0 mg/kg/injection, schedule: Q04DX002 (ip), vehicle: saline
  T/C: 112 % of control

## N#[N+]c1ccc(Br)cc1-c1nc(N)nc(N)n1
[16]
  T/C: 92 % of control
[17]
  T/C: 101 % of control
[18]
  T/C: 113 % of control
[19]
  T/C: 100 % of control
[20]
  T/C: 98 % of control
[5]
  T/C: 104 % of control

## O=S(=O)(O)c1cc(Cl)c(O)c(Cl)c1
[13]
  T/C: 95 % of control
[14]
  T/C: 102 % of control
[15]
  T/C: 106 % of control

## CC(=O)/C(=N\N=C(N)N)c1ccccc1
dose: 1.88 mg/kg/injection, schedule: Q01DX Z (ip), vehicle: saline
  T/C: 102 % of control
dose: 3.75 mg/kg/injection, schedule: Q01DX Z (ip), vehicle: saline
  T/C: 93 % of control
dose: 3.75 mg/kg/injection, schedule: Q01DX Z (oral), vehicle: other
  T/C: 90 % of control
dose: 7.5 mg/kg/injection, schedule: Q01DX Z (ip), vehicle: saline
  T/C: 98 % of control
dose: 7.5 mg/kg/injection, schedule: Q01DX Z (oral), vehicle: other
  T/C: 98 % of control
dose: 15.0 mg/kg/injection, schedule: Q01DX Z (oral), vehicle: other
  T/C: 96 % of control

## Nc1nc2c(ncn2C2OC(CO)C(O)C2O)c(=O)[nH]1 (stereo not given)
dose: 5.0 mg/kg/injection, schedule: Q01DX001 (ip), vehicle: saline
  T/C: 102 % of control
dose: 10.0 mg/kg/injection, schedule: Q01DX001 (ip), vehicle: saline
  T/C: 105 % of control
dose: 20.0 mg/kg/injection, schedule: Q01DX001 (ip), vehicle: saline
  T/C: 97 % of control
dose: 40.0 mg/kg/injection, schedule: Q01DX001 (ip), vehicle: saline
  T/C: 103 % of control
dose: 80.0 mg/kg/injection, schedule: Q01DX001 (ip), vehicle: saline
  T/C: 108 % of control
[25]
  T/C: 100 % of control
[5]
  T/C: 101 % of control and 105 % of control
[26]
  T/C: 97 % of control
[6]
  T/C: 101 % of control
[27]
  T/C: 97 % of control

## CN1CCC(CNC(=O)c2ccccc2)c2ccccc21 (stereo not given)
dose: 50.0 mg/kg/injection, schedule: Q01DX001 (ip), vehicle: carboxymethylcellulose (CMC)
  T/C: 100 % of control
[25]
  T/C: 96 % of control
[26]
  T/C: 92 % of control
[27]
  T/C: 102 % of control

## Nc1ccc(Cl)cc1C(=O)O
[22]
  T/C: 90 % of control
[23]
  T/C: 101 % of control
[24]
  T/C: 90 % of control

## CC(=O)Nc1ccc2c(c1)C(=O)c1cc(F)ccc1-2
[10]
  T/C: 100 % of control
[11]
  T/C: 96 % of control
[12]
  T/C: 110 % of control
